Test results as given in article PMC7747594, “Protease-activated receptor-2 ligands reveal orthosteric and allosteric mechanisms of receptor inhibition” (Communications Biology, 2020).
Read-outs that look alike come from different tables or passages of the source. Values belong to the compound of their own block, whether it stands above or below them.

Legend:
hPAR2 [1] = target: T1, hPAR2 (Homo sapiens, UniProt P55085); assay: Radiolabelled competition binding assay against [^3H]-GB110 on HEKexpi293F membranes; parameters: expressed in transfected cells
T1 sequence (P55085 26-397): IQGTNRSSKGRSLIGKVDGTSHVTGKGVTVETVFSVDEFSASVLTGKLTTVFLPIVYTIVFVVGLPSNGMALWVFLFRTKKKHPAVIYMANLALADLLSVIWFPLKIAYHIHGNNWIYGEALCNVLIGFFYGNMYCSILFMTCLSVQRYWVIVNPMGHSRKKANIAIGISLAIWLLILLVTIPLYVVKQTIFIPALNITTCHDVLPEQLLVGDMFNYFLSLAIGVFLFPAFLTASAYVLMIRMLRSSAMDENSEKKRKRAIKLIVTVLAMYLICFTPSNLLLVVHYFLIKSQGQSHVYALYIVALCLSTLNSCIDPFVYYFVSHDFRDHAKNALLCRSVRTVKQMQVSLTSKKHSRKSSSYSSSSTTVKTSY
Method: The reaction was then filtered through 0.5% PEI-coated filter plates using a BiomekFX. The filter plate was then dried for 1 h at 50 °C. Scintillation fluid was added to each well, before reading the plate in a Microbeta reader.
(§1) Binding data were analysed using the One site – Fit Ki model in GraphPad Prism 8 (GraphPad Software) to determine binding affinity. Pharmacology in vitro potency data was analysed with a 4-parameter logistic fit using the equation y = Bottom + (Top − Bottom)/[…] where y is the response, x is the 10-logarithm of the drug concentration, Bottom is no response and Top is full response in GraphPad Prism 8 or Genedata Screener (Genedata). pEC50 and pIC50 data are presented as mean ± standard error of the mean (s.e.m.) derived from the number of independent experiments stated. Schild slope analysis was calculated using Graphpad Prism 8 Gaddum/Schild EC50 global fitting (shared model parameters between all data sets) competitive model. The most rigorous method for quantifying agonist-antagonist interactions is to globally fit the Gaddum/Shild model to all agonist dose–response curves. Schild slope quantifies the shifts in agonist response in the presence of antagonist, a Schild slope of 1 indicates the antagonist is competitive and extra-sum-of-squares F-test (p < 0.05) was used to compare the calculated Schild slope against a hypothetical Schild slope of 1. […] The relative activity was calculated using (EmaxEC50’)/(Emax’EC50) with the Hill slope help constant at 1. EC50’ and Emax’ denote the EC50 and Emax in the absence of allosteric modulator, while EC50 and Emax denote those measured in the presence of allosteric modulator. When the Hill slope = 1, the relative activity plot approaches an asymptote corresponding to the estimate of the γ value.

hPAR2 [2] = target: T1, hPAR2; assay: Ca^2+ flux assay, inhibition of trypsin activation in 1321N1-hPAR2 cells (with 1 µM Vorapaxar); format: cell-based; conditions: for shape of inhibition of trypsin-induced Ca^2+ mobilisation: 1321N1-hPAR2 cells, 1 µM Vorapaxar
hPAR2 [3] = target: T1, hPAR2; assay: Europium-tagged competition binding assay against Eu-tagged-2f-LIGRLO(dtpa)-NH2 on CHO-hPAR2 cells; parameters: expressed in transfected cells; host or cells: Flp-In CHO
Method: CHO-hPAR2 cells were seeded overnight in 384-well plate at 2.5 × 10^4 cells/well and blocked with 2% BSA for 60 min. […] Cells were washed 3× with PBS supplemented with 20 µM EDTA, 0.01% Tween and 0.2% BSA followed by addition of DELFIA Enhancement Solution (Perkin Elmer) for 90 min. Time-resolved fluorescence was measured with PHERAstar FS reader (BMG Labtech).
as §1, with “The most rigorous method for quantifying agonist-antagonist interactions is to globally fit the Gaddum/Shild model to all agonist dose–response curves.” left out

hPAR2 [4] = target: T1, hPAR2; assay: IP1 HTRF assay, inhibition of SLIGRL-NH2 in 1321N1-hPAR2 cells; format: cell-based
Method: Inhibition of PAR2-induced inositol-1-phosphate (IP1) production was measured in 1321N1-hPAR2 cells using IP-One Gq HTRF assay kit (Cisbio). […] Next, EC80 of SLIGRL-NH2 (70 µM) supplemented with 50 mM LiCl was added and incubated for 60 min at 37 °C. Detection of IP1 production was performed according to the manufacturer’s protocol and HTRF was measured using PHERAstar (BMG LabTech). Data were normalised to [IP1] using a standard curve.
as §1, with “The most rigorous method for quantifying agonist-antagonist interactions is to globally fit the Gaddum/Shild model to all agonist dose–response curves.” left out

hPAR2 [5] = target: T1, hPAR2; assay: β-arrestin-2 recruitment assay, inhibition of SLIGRL-NH2 in U2OS-hPAR2 cells; format: cell-based
Method: β‐Arrestin-2 recruitment was measured in U2OS-hPAR2 cells using the DiscoverX assay kit, according to the manufacturer’s instructions. Briefly, cells were seeded in McCoy’s 5A media containing 10% FBS at 4000 cells per well in 384-well plates and incubated overnight at 37 °C, 5% CO2. Antagonist compounds (30 µM–1 nM) were incubated with the cells for 30 min prior to the addition of agonist SLIGRL-NH2 (10 µM) at EC80 and further incubation for 90 min at 37 °C. Working detection solution (12 µl) was then added to each well, incubated at room temperature in the dark for 60 min and the chemiluminescence signal read on the EnVision microplate reader (Perkin Elmer).
as §1, with “The most rigorous method for quantifying agonist-antagonist interactions is to globally fit the Gaddum/Shild model to all agonist dose–response curves.” left out

[6] = against Eu-tagged-2f-LIGRLO(dtpa)-NH2, CHO-hPAR2 cells, mean ± s.e.m., read-out: Competition Binding (hPAR2) pKi (converted)
[7] = SLIGRL-NH2, 1321N1-hPAR2 cells, mean ± s.e.m., read-out: IP1 (hPAR2) pIC50 (converted)
[8] = SLIGRL-NH2, U2OS-hPAR2, mean ± s.e.m., read-out: β-arrestin (hPAR2) pIC50 (converted)
[9] = earlier manuscript version quoted by reviewer, read-out: Ki

remaining binding at 100 µM (hPAR2 [1]; 2 h, log [compound],M -4, individual data points, read-out: specific binding of [^3H]-GB110, Fig 2b source data): 19.6%
remaining binding at 33.3 µM (hPAR2 [1]; 2 h, log [compound],M -4.47756, individual data points, read-out: specific binding of [^3H]-GB110, Fig 2b source data): 10.5%
remaining binding at 3.7 µM (hPAR2 [1]; 2 h, log [compound],M -5.4318, individual data points, read-out: specific binding of [^3H]-GB110, Fig 2b source data): 11.5%
remaining binding at […] (hPAR2 [1]; 2 h, log [compound],M -5.91009, individual data points, read-out: specific binding of [^3H]-GB110, Fig 2b source data): 15.9%
remaining binding at 0.0152 µM (hPAR2 [1]; 2 h, log [compound],M -7.81816, individual data points, read-out: specific binding of [^3H]-GB110, Fig 2b source data): 88%
remaining binding at 0.00508 µM (hPAR2 [1]; 2 h, log [compound],M -8.29414, individual data points, read-out: specific binding of [^3H]-GB110, Fig 2b source data): 97.4%
remaining binding at 0.00169 µM (hPAR2 [1]; 2 h, log [compound],M -8.77211, individual data points, read-out: specific binding of [^3H]-GB110, Fig 2b source data): 99.3%
remaining binding at 0.000565 µM (hPAR2 [1]; 2 h, log [compound],M -9.24795, individual data points, read-out: specific binding of [^3H]-GB110, Fig 2b source data): 105%
Ki (hPAR2 [1]; [3H]-GB110, earlier manuscript version quoted by reviewer, read-out: Ki): 63 nM
Structure (SMILES): CNC(=O)[C@H]1CC[C@@H](NC(=O)[C@H](CC2CCCCC2)NC(=O)c2cn(Cc3ccccc3)nn2)c2ccccc21 [AZ2429]

shape of inhibition of trypsin-induced Ca^2+ mobilisation (hPAR2 [2]): biphasic inhibition curves
Ki (hPAR2 [3]; [6]): 79.4 nM
IC50 (hPAR2 [4]; [7]): 81.3 nM
IC50 (hPAR2 [5]; [8]): 490 nM
Structure (SMILES): C[C@@H](C1CCCCC1)n1c(-c2cc3c(cc2Br)OCO3)nc2cc(C(=O)Nc3ccncc3)ccc21 [AZ2623]

shape of inhibition of trypsin-induced Ca^2+ mobilisation (hPAR2 [2]): biphasic inhibition curves
remaining activity at 0.03 µM (hPAR2 [2]; log[compound], M -7.52288, individual data points, read-out: trypsin Ca^2+ mobilisation, antagonist response, Fig 1g source data): 71.7%
remaining activity at 0.01 µM (hPAR2 [2]; log[compound], M -8, individual data points, read-out: trypsin Ca^2+ mobilisation, antagonist response, Fig 1g source data): 68%
remaining activity at 0.003 µM (hPAR2 [2]; log[compound], M -8.52288, individual data points, read-out: trypsin Ca^2+ mobilisation, antagonist response, Fig 1g source data): 73%
remaining activity at 0.001 µM (hPAR2 [2]; log[compound], M -9, individual data points, read-out: trypsin Ca^2+ mobilisation, antagonist response, Fig 1g source data): 78.8%
remaining activity at 0.0003 µM (hPAR2 [2]; log[compound], M -9.52288, individual data points, read-out: trypsin Ca^2+ mobilisation, antagonist response, Fig 1g source data): 82.9%
remaining activity at 0.0001 µM (hPAR2 [2]; log[compound], M -10, individual data points, read-out: trypsin Ca^2+ mobilisation, antagonist response, Fig 1g source data): 99.7%
IC50 (hPAR2 [2]; trypsin, read-out: inhibition of trypsin activation of PAR2 signalling, biphasic, pIC50 first phase (converted)): 3.16 nM
IC50 (hPAR2 [2]; trypsin, read-out: inhibition of trypsin activation of PAR2 signalling, biphasic, pIC50 second phase (converted)): 1000 nM
Kb (hPAR2 [3]; determined with Eu-tagged-2f-LIGRLO(dtpa)-NH2, read-out: equilibrium dissociation constant pKA / pKB (converted)): 126 nM
Ki (hPAR2 [3]; [9]): 120 nM
IC50 (hPAR2 [4]; [7]): 22.4 nM
remaining activity at 0.1001 µM (hPAR2 [4]; log[compound], M -6.99957, individual data points, read-out: SLIGRL-NH2 IP1 formation, antagonist response, Fig 1d source data): 15.9%
remaining activity at 0.03164 µM (hPAR2 [4]; log[compound], M -7.49976, individual data points, read-out: SLIGRL-NH2 IP1 formation, antagonist response, Fig 1d source data): 43.6%
remaining activity at 0.01001 µM (hPAR2 [4]; log[compound], M -7.99957, individual data points, read-out: SLIGRL-NH2 IP1 formation, antagonist response, Fig 1d source data): 71.9%
remaining activity at 0.003165 µM (hPAR2 [4]; log[compound], M -8.49963, individual data points, read-out: SLIGRL-NH2 IP1 formation, antagonist response, Fig 1d source data): 100%
IC50 (hPAR2 [5]; [8]): 87.1 nM
Ki (hPAR2 [1]; against [^3H]-GB110, HEKexpi293F membranes expressing hPAR2, mean ± s.e.m., read-out: Competition binding pKi (converted)): 12.6 nM
Structure (SMILES): C[C@@H](C1CCCCC1)n1c(-c2cc3c(cc2Br)OCO3)nc2cc(C(=O)Nc3ccc(C#N)cc3)ccc21 [AZ3451]

Structure (SMILES): CCCc1cc(F)ccc1C(O)c1ncc[nH]1 (stereo not shown) [AZ8838]
IC50 (hPAR2 [2]): 3980 nM
shape of inhibition of trypsin-induced Ca^2+ mobilisation (hPAR2 [2]): sigmoidal and monophasic
remaining activity at 1.318 µM (hPAR2 [2]; read-out: trypsin Ca^2+ mobilisation, antagonist response, Fig 1g source data, log[compound], M -5.88008, individual data points): 86.9%
remaining activity at 0.1318 µM (hPAR2 [2]; read-out: trypsin Ca^2+ mobilisation, antagonist response, Fig 1g source data, log[compound], M -6.88008, individual data points): 93.7%
remaining activity at 0.04169 µM (hPAR2 [2]; read-out: trypsin Ca^2+ mobilisation, antagonist response, Fig 1g source data, log[compound], M -7.37997, individual data points): 93.1%
remaining activity at 0.01318 µM (hPAR2 [2]; read-out: trypsin Ca^2+ mobilisation, antagonist response, Fig 1g source data, log[compound], M -7.88008, individual data points): 97.5%
Ki (hPAR2 [3]; [6]): 6310 nM
Ki (hPAR2 [3]; [9]): 3600 nM
IC50 (hPAR2 [4]): 1450 nM
remaining activity at 3.163 µM (hPAR2 [4]; read-out: SLIGRL-NH2 IP1 formation, antagonist response, Fig 1d source data, log[compound], M -5.4999, individual data points): 40.7%
remaining activity at 1 µM (hPAR2 [4]; read-out: SLIGRL-NH2 IP1 formation, antagonist response, Fig 1d source data, log[compound], M -6, individual data points): 54.4%
remaining activity at 0.3164 µM (hPAR2 [4]; read-out: SLIGRL-NH2 IP1 formation, antagonist response, Fig 1d source data, log[compound], M -6.49976, individual data points): 79.9%
remaining activity at 0.03164 µM (hPAR2 [4]; read-out: SLIGRL-NH2 IP1 formation, antagonist response, Fig 1d source data, log[compound], M -7.49976, individual data points): 108%
IC50 (hPAR2 [5]): 794 nM
Ki (hPAR2 [1]): 398 nM
